Assay results as given in PubChem BioAssay (NCI).
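Following 48 hours of exposure in 96-well plates, responses at five concentrations were used to interpolate endpoints linearly. Here, GI50 denotes the concentration required for 50% inhibition of growth. At the TGI there is no net growth.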

Experiments:
Experiment in all cases: growth of human tumour cells (NCI), 48 h
[1] = tested on: ACHN renal
[2] = tested on: BT-549 breast
[3] = tested on: COLO 205 colon
[4] = tested on: HCT-15 colon
[5] = tested on: MCF7 breast
[6] = tested on: NCI-H226 lung
[7] = tested on: NCI-H460 lung
[8] = tested on: OVCAR-4 ovarian
[9] = tested on: SF-268 CNS
[10] = tested on: TK-10 renal

`CCOC(=O)c1nc2cc(C(F)(F)F)ccc2[n+]([O-])c1C` was tested. Which GI50 [1] did it give?
Its GI50 is greater than 100 µM.

And the TGI [1]?
The TGI was greater than 100 µM.

And the GI50 [2]?
The GI50 was greater than 100 µM.

And the TGI [2]?
The TGI was greater than 100 µM.

What about the GI50 [3] of the same molecule?
The GI50 was greater than 100 µM.

And the TGI [3]?
The TGI was greater than 100 µM.

And the GI50 [4]?
The GI50 was greater than 100 µM.

What about the TGI [4] of the same molecule?
The TGI was greater than 100 µM.

And the GI50 [5]?
The GI50 was greater than 100000 nM.

What about the TGI [5] of the same molecule?
The TGI was greater than 100 µM.

What about the GI50 [6] of the same molecule?
The GI50 was greater than 100 µM.

And the TGI [6]?
The TGI was greater than 100 µM.

And the GI50 [7]?
The GI50 was greater than 100 µM.

What about the TGI [7] of the same molecule?
The TGI was greater than 100 µM.

And the GI50 [8]?
Its GI50 is greater than 100 µM.

And the TGI [8]?
Its TGI is greater than 100 µM.

And the GI50 [9]?
Its GI50 is greater than 100 µM.

And the TGI [9]?
The TGI was greater than 100 µM.

And the GI50 [10]?
The GI50 was greater than 100 µM.

And the TGI [10]?
Its TGI is greater than 100 µM.

With `CNC(=O)c1cc2c(Oc3ccc(NC(=S)NC(=O)Cc4ccccc4)cc3F)ccnc2cc1OC` as the molecule, how does the GI50 [1] read?
Its GI50 is 3.5 µM.

And the TGI [1]?
Its TGI is greater than 100 µM.

And the GI50 [2]?
Its GI50 is 2.91 µM.

And the TGI [2]?
The TGI was greater than 28.7 µM.

And the GI50 [3]?
The GI50 was 5.37 µM.

And the TGI [3]?
The TGI was greater than 100 µM.

What about the GI50 [4] of the same molecule?
Its GI50 is 4.7 µM.

What about the TGI [4] of the same molecule?
Its TGI is greater than 100 µM.

What about the GI50 [5] of the same molecule?
Its GI50 is greater than 100000 nM.

What about the TGI [5] of the same molecule?
Its TGI is greater than 100 µM.

What about the GI50 [6] of the same molecule?
The GI50 was 5.36 µM.

What about the TGI [6] of the same molecule?
The TGI was greater than 100 µM.

What about the GI50 [7] of the same molecule?
The GI50 was greater than 100 µM.

And the TGI [7]?
Its TGI is greater than 100 µM.

And the GI50 [8]?
The GI50 was 5.44 µM.

What about the TGI [8] of the same molecule?
Its TGI is greater than 100 µM.

And the GI50 [9]?
Its GI50 is 4.51 µM.

And the TGI [9]?
Its TGI is greater than 100 µM.

And the GI50 [10]?
Its GI50 is 5.99 µM.

And the TGI [10]?
The TGI was greater than 100 µM.

`O=Nc1c(O)c2ccccc2c2ccccc12` was tested. Which GI50 [1] did it give?
Its GI50 is 1.02 µM.

And the TGI [1]?
The TGI was 7.1 µM.

What about the GI50 [2] of the same molecule?
The GI50 was 1.25 µM.

And the TGI [2]?
The TGI was 2.55 µM.

And the GI50 [3]?
The GI50 was 1.92 µM.

And the TGI [3]?
Its TGI is 3.46 µM.

And the GI50 [4]?
Its GI50 is 0.398 µM.

And the TGI [4]?
Its TGI is 2.4 µM.

And the GI50 [5]?
Its GI50 is 1460 nM.

And the TGI [5]?
The TGI was 4.11 µM.

What about the GI50 [6] of the same molecule?
The GI50 was 2.03 µM.

And the TGI [6]?
The TGI was 3.83 µM.

What about the GI50 [7] of the same molecule?
The GI50 was 1.06 µM.

And the TGI [7]?
Its TGI is 2.49 µM.

And the GI50 [8]?
Its GI50 is 0.198 µM.

What about the TGI [8] of the same molecule?
The TGI was 0.48 µM.

And the GI50 [9]?
Its GI50 is 1.43 µM.

What about the TGI [9] of the same molecule?
The TGI was 3.75 µM.

And the GI50 [10]?
Its GI50 is 2.7 µM.

And the TGI [10]?
Its TGI is 7.9 µM.

`NC(CO)C(=O)NCC(=O)O` (stereo not given) was tested. Which TGI [1] did it give?
Its TGI is greater than 100 µM.

And the TGI [2]?
The TGI was greater than 100 µM.

What about the TGI [3] of the same molecule?
The TGI was greater than 100 µM.

What about the TGI [4] of the same molecule?
Its TGI is greater than 100 µM.

What about the TGI [5] of the same molecule?
The TGI was greater than 100 µM.

What about the TGI [6] of the same molecule?
Its TGI is greater than 100 µM.

What about the TGI [7] of the same molecule?
Its TGI is greater than 100 µM.

And the TGI [8]?
Its TGI is greater than 100 µM.

And the TGI [9]?
Its TGI is greater than 100 µM.

And the TGI [10]?
The TGI was greater than 100 µM.

For `CCN(Cc1cccc(F)c1F)c1ccc(CO)c(Cl)c1`, which GI50 [1] is on record?
Its GI50 is 17.8 µM.

And the TGI [1]?
Its TGI is greater than 51.7 µM.

What about the GI50 [2] of the same molecule?
The GI50 was 18.5 µM.

What about the TGI [2] of the same molecule?
The TGI was 35.9 µM.

What about the GI50 [3] of the same molecule?
Its GI50 is 2.47 µM.

What about the TGI [3] of the same molecule?
Its TGI is 7.59 µM.

What about the GI50 [4] of the same molecule?
The GI50 was 12.4 µM.

What about the TGI [4] of the same molecule?
Its TGI is 36.2 µM.

And the GI50 [5]?
The GI50 was 157 nM.

What about the TGI [5] of the same molecule?
The TGI was 12.6 µM.

What about the GI50 [6] of the same molecule?
The GI50 was 0.0318 µM.

And the TGI [6]?
Its TGI is 0.141 µM.

What about the GI50 [7] of the same molecule?
Its GI50 is 0.176 µM.

And the TGI [7]?
Its TGI is 11 µM.

What about the GI50 [8] of the same molecule?
The GI50 was 0.127 µM.

What about the TGI [8] of the same molecule?
The TGI was 1.24 µM.

And the GI50 [9]?
The GI50 was 19.3 µM.

What about the TGI [9] of the same molecule?
The TGI was 42.7 µM.

What about the GI50 [10] of the same molecule?
The GI50 was 0.0385 µM.

And the TGI [10]?
Its TGI is 0.23 µM.

With `NCCN1C(=O)c2ccccc2C1(O)c1ccc(Cl)cc1` (stereo not given) as the molecule, how does the TGI [1] read?
The TGI was 59.3 µM.

What about the TGI [2] of the same molecule?
Its TGI is greater than 100 µM.

And the TGI [3]?
Its TGI is 39.4 µM.

What about the TGI [4] of the same molecule?
Its TGI is greater than 100 µM.

What about the TGI [5] of the same molecule?
Its TGI is 32.6 µM.

What about the TGI [6] of the same molecule?
The TGI was greater than 100 µM.

And the TGI [7]?
The TGI was 30.4 µM.

What about the TGI [8] of the same molecule?
The TGI was greater than 100 µM.

What about the TGI [9] of the same molecule?
The TGI was 57.1 µM.

What about the TGI [10] of the same molecule?
Its TGI is 36.1 µM.

What does the source list for `Oc1ccccc1C=Nc1ccccc1N=Cc1ccccc1O.[Cu+2]`?
GI50 [1]: 5.64 µM; TGI [1]: 22.2 µM; GI50 [2]: 3.24 µM; TGI [2]: 11.9 µM; GI50 [3]: 3.45 µM; TGI [3]: 14.5 µM; GI50 [4]: 5.81 µM; TGI [4]: 24.8 µM; GI50 [5]: 2340 nM; TGI [5]: 14.1 µM; GI50 [6]: 3.72 µM; TGI [6]: 16.3 µM; GI50 [7]: 12.3 µM; TGI [7]: 30 µM; GI50 [8]: 5.79 µM; TGI [8]: 19 µM; GI50 [9]: 4.35 µM; TGI [9]: 17.5 µM; GI50 [10]: 10.5 µM; TGI [10]: 23.8 µM
